Assays:
[1] = test system: Brown rust (Puccinia recondita); assay: Test Example 4: foliar spray on wheat, Brown rust lesion area; format: in vivo, Puccinia recondita on wheat (cultivar. Shirogane); details: single use, foliar spray one day before inoculation
Method: Five(5) parts of the present compound 1-1, 35 parts of a mixture of white carbon and ammonium polyoxyethylene alkyl ether sulfate (the weight ratio of 1:1) and 55 parts of water were mixed, and the mixture was then finely-ground by a wet grinding method to obtain a flowable comprising the present compound 1-1. Separately, the flowable comprising the present compound 2 was prepared according to the above-mentioned similar method except that the present compound 2 was used instead of the present compound 1-1.
Each of the flowable comprising the present compound 1-1 and the flowable comprising the present compound 2 was diluted with water and if necessary, the resultant dilute solutions were mixed each other such that each concentration of the respective compounds in the dilution solution was adjusted to the concentration indicated in Table 4, to prepare the dilution solutions, respectively.
A plastic pot was filled with soil, and thereto wheat (cultivar. Shirogane) was seeded, and the plants were grown in a greenhouse for ten days. The above-mentioned dilution solutions were sprayed to foliar parts so as to adhere adequately onto the surfaces of leaves of the above wheats. After spraying the dilute solution, the plants were air-dried, and one day after the application, an aqueous suspension of uredospores of Brown rust (Puccinia recondita) was inoculated by spraying thereto. After the inoculation, the plants were placed at 27° C. under humid condition for one day, and were then cultivated under lighting for ten days, and a lesion area was examined (hereinafter referred to as “lesion area of treated group”).
Whereas, wheats were cultivated similarly to the treated group except that no foliage application of the above-mentioned agent solution was done, and Brown rust were inoculated, and the lesion area thereof was examined (hereinafter referred to as “lesion area of the untreated group”).
From each of the lesion area of the treated group and the untreated group, respectively, the efficacy of the treated group was calculated by the following Equation 2. […]

[2] = test system: Septoria leaf blotch (Mycosphaerella graminicola); assay: Test Example 3: growth of Septoria leaf blotch in YBG medium in microtiter plate (absorbance at 550 nm); format: cell-based; details: single use, 18° C., four days
Method: Each of the present compound 1-1 or the present compound 2 was dissolved into dimethyl sulfoxide such that each concentration of these compounds was adjusted to one hundred fifty times as much as the concentration indicated in the below-mentioned Table 3. The resultant agent solution was dispensed into each microtiter plate (with 96 wells) in 1 μl portion thereof per well. […] The plate was cultivated at 18° C. for four days, thereby allowing Septoria leaf blotch (Mycosphaerella graminicola) to undergo proliferation, and the absorbance at 550 nm of each well of the microtiter plate was then measured to examine a degree of growth of Septoria leaf blotch (hereinafter referred to as “treated group”).
Whereas, Septoria leaf blotch was proliferated similarly to the case of the treated group except that dimethyl sulfoxide was used instead of the agent solution, and the degree of the growth was examined (hereinafter referred to as “untreated group”). The efficacy was calculated from each of the obtained degree of growth of the treated group and the untreated group respectively by the following “Equation 1”. […]

Q: How did the “Efficacy (%)” value ([1]; concentration in agent solution 0.001 ppm) turn out when `CC1CC(C)(C)c2c(F)ccc(NC(=O)c3cn(C)nc3C(F)F)c21` (centres unmarked) [Present compound 2] was run?
A: 15%

Q: What about the “Efficacy (%)” value ([2]; concentration in medium 0.05 ppm) of the same compound?
A: 55%

Q: For `Cc1nnc(Cl)c(-c2c(F)cccc2F)c1-c1ccccc1` [Present compound 1-1], which “Efficacy (%)” value ([1]; concentration in agent solution 0.0001 ppm) is on record?
A: 20%

Q: And the “Efficacy (%)” value ([1]; concentration in agent solution 0.01 ppm)?
A: 31%

Q: And the “Efficacy (%)” value ([2]; concentration in medium 0.005 ppm)?
A: 4%
